The assay relates to melon. As to the kind of experiment: Comprehensive test on growth regulation for melon by thidiazuron combined with amino-oligosaccharin. The following applies: 42 mg/kg. In kind it is in vivo. The procedure:
1. Comprehensive Test on Growth Regulation for Melon by Thidiazuron Combined with Amino-Oligosaccharin
The thidiazuron and amino-oligosaccharin were diluted with acetone to give a series of concentrations, and the crops were sprayed in the flowering phase to determine the effect of each concentration on crop growth in the field, so as to make a comprehensive evaluation with respect to the carpopodium diameter, fruit setting rate, disease inhibition rate, quality, and yield of the crops. Carpopodium diameter increase rate=(Plant height in water control group−Plant height in treatment group)/Plant height in water control group*100% Fruit setting increase rate=(Stem diameter in treatment group−Stem diameter in water control group)/Stem diameter in water control group*100% Disease reduction rate=(Disease index in water control group−Disease index in treatment group)/Disease index in water control group*100% Single fruit weight increase rate=(weight in treatment group−quality in water control group)/weight in water control group*100% Central sugar increase rate=(Central sugar content in treatment group−Central sugar content in water control group)/Central sugar content in water control group*100%

Where [1] appears, read: flowering phase, vs water control.
Where [2] appears, read: sprayed in flowering phase, 1 application.

`O=C(Nc1ccccc1)Nc1cnns1` [Thidiazuron, thidiazuron]: under setting [1], the “Anthracnose index reduction rate (disease reduction rate)” value was found to be 17.6%, the “Carpopodium diameter increase rate” value was found to be 4.0%, the “Central sugar increase rate” value is reported as 7.4% and the “Fruit setting increase rate” value came to 8.6%. Besides, the “Single fruit weight increase rate” value under setting [1] came to 8.9%. Under setting [2], the Anthracnose index came out at 17.76, the Carpopodium diameter was determined as 6.65 mm, the Central sugar content was 9.36% and the Fruit setting rate amounted to 27.0%. Besides, the Single fruit weight under setting [2] was 1.03 kg.

The values are drawn from patent publication US10791741B2, “Plant growth regulator” (JIANGSU HUIFENG BIO TECHNOLOGY CO., LTD., priority 2016, dated 2020).
